The species named for the assay is Homo sapiens. Nature of the assay: Concentration required to inhibit collagen-induced platelet aggregation in human platelet rich plasma (PRP). The class given is functional.

As a reminder, the IC50 is the point on the concentration scale where inhibition reaches its midpoint. A higher IC50 goes with lower potency. `CC(C)(/C=C/C(O)c1ccc(C(=N)N)cc1)C(=O)N1CCC(CC(=O)O)CC1` (configuration not stated) gave an IC50 of 7600 nM.

The molecule `C#CCOC(/C=C/c1ccc(C(=N)N)cc1)C(C)(C)C(=O)N1CCC(CC(=O)O)CC1` (configuration not stated) returned an IC50 of 270 nM.

For `COC(/C=C/c1ccc(C(=N)N)cc1)C(C)(C)C(=O)N1CCC(CC(=O)O)CC1` (configuration not stated), the IC50 was found to be 250 nM.

`CC(C)(C(=O)/C=C/c1ccc(C(=N)N)cc1)C(=O)N1CCC(CC(=O)O)CC1` gave a 50% inhibitory concentration (IC50) of 3500 nM. This IC50 is about 14-fold higher than that of the molecule before.

`CC(C)(/C=C/C(=O)c1ccc(C(=N)N)cc1)C(=O)N1CCC(CC(=O)O)CC1` showed an IC50 of 210 nM.

The molecule `CC(C)(CCC(=O)c1ccc(C(=N)N)cc1)C(=O)N1CCC(CC(=O)O)CC1` returned an IC50 of 630 nM. Compared with the last molecule, the IC50 is about 3-fold higher.

With `CCCCCCOC(/C=C/c1ccc(C(=N)N)cc1)C(C)(C)C(=O)N1CCC(CC(=O)O)CC1` (configuration not stated), half-maximal inhibition (IC50) required 1600 nM.

`CC(C)(C(=O)N1CCC(CC(=O)O)CC1)/C(O)=C/C(=O)c1ccc(C(=N)N)cc1` registered an IC50 of 600000 nM.

The molecule `CCOC(/C=C/c1ccc(C(=N)N)cc1)C(C)(C)C(=O)N1CCC(CC(=O)O)CC1` (configuration not stated) registered an IC50 of 260 nM. This IC50 is about 2300-fold lower than that of the molecule before.

`COC(CCc1ccc(C(=N)N)cc1)C(C)(C)C(=O)N1CCC(CC(=O)O)CC1` (configuration not stated) registered an IC50 of 480 nM. Against the preceding molecule, the IC50 is about 1.8-fold higher.

Consider `CC(C)(C(=O)N1CCC(CC(=O)O)CC1)C(/C=C/c1ccc(C(=N)N)cc1)OCc1ccccc1` (configuration not stated), for which the IC50 turned out to be 730 nM.

`CC(C)(C(=O)N1CCC(CC(=O)O)CC1)C(O)/C=C/c1ccc(C(=N)N)cc1` (configuration not stated) displayed an IC50 of 600 nM.

Source of the values: ChEMBL document CHEMBL1151587, “Development of new non-peptide GPIIb/IIIa antagonists, NSL-95315 and NSL-95317, isosteres of NSL-95300” (Bioorg Med Chem Lett, 1997).
